Key:
[1] = molecular target: Cyclin-dependent kinase 5/CDK5 activator 1 (Homo sapiens) (UniProt Q00535+Q15078); assay: Inhibition of GST/His-tagged full-length human CDK5/p25 expressed in baculovirus system at 100 nM by Z-lyte assay
[2] = molecular target: T1, AMP-activated protein kinase, AMPK (Homo sapiens) (UniProt P54646+O43741+P54619+Q9UGJ0+Q9Y478+Q13131+Q9UGI9); assay: Inhibition of GST/His-tagged full-length human recombinant AMPK A2/B1/G1 expressed in baculovirus system at 100 nM by Z-lyte assay
[3] = Antiproliferative activity against human U87MG cells at 0.001 to 100 uM after 24 hrs by MTS assay; type: functional, U-87MG ATCC
U-87 MG = assay: Induction of apoptosis in human U87MG cells assessed as dead cells by measuring phosphatidylserine externalisation at 10 uM after 72 hrs in presence of 7-amino-actinomysin by AnnexinV/FITC staining-based flow cytometry (reference value: 2.1%); type: functional, U-87MG ATCC
[4] = molecular target: Inhibitor of nuclear factor kappa-B kinase subunit alpha (Homo sapiens) (UniProt O15111); assay: Inhibition of His-tagged full-length human IKKalpha expressed in baculovirus system at 100 nM by adapta assay
[5] = molecular target: Serine/threonine-protein kinase Chk1 (Homo sapiens) (UniProt O14757); assay: Inhibition of His-tagged full-length human CHEK1 expressed in baculovirus system at 100 nM by Z-lyte assay
[6] = molecular target: Rho-associated protein kinase 2 (Homo sapiens) (UniProt O75116); assay: Inhibition of catalytic recombinant GST-tagged human ROCK2 expressed in baculovirus system at 100 nM by Z-lyte assay
[7] = molecular target: Glycogen synthase kinase-3 alpha (Homo sapiens) (UniProt P49840); assay: Inhibition of GSK3 alpha (unknown origin) at 100 nM by Z-lyte assay
[8] = Induction of apoptosis in human GSC cells assessed as live cells by measuring phosphatidylserine externalisation at 10 uM after 7 days by AnnexinV/FITC staining-based flow cytometry (reference value: 87.49%); type: functional
[9] = Induction of apoptosis in human GSC cells assessed as late apoptotic cells by measuring phosphatidylserine externalisation at 10 uM after 7 days in presence of 7-amino-actinomysin by AnnexinV/FITC staining-based flow cytometry (reference value: 4.14%); type: functional
[10] = molecular target: Tyrosine-protein kinase Lck (Homo sapiens) (UniProt P06239); assay: Inhibition of His-tagged full-length human LCK expressed in baculovirus system at 100 nM by Z-lyte assay
[11] = molecular target: Dual specificity protein kinase CLK1 (Homo sapiens) (UniProt P49759); assay: Inhibition of GST-tagged human CLK1 expressed in Escherichia coli at 100 nM by Z-lyte assay
[12] = molecular target: Serine/threonine-protein kinase MARK1 (Homo sapiens) (UniProt Q9P0L2); assay: Inhibition of GST-tagged full-length recombinant human MARK1 expressed in baculovirus system at 100 nM by Z-lyte assay
[13] = molecular target: T1, AMP-activated protein kinase, AMPK (Homo sapiens); assay: Inhibition of GST/His-tagged full-length human recombinant AMPK A1/B1/G1 expressed in baculovirus system at 100 nM by Z-lyte assay
[14] = molecular target: G protein-coupled receptor kinase 5 (Homo sapiens) (UniProt P34947); assay: Inhibition of GST-tagged full-length human recombinant GRK5 expressed in baculovirus system at 100 nM by Z-lyte assay
[15] = molecular target: RAC-beta serine/threonine-protein kinase (Homo sapiens) (UniProt P31751); assay: Inhibition of His-tagged full-length human AKT2 expressed in baculovirus system at 100 nM by Z-lyte assay
[16] = molecular target: Dual specificity mitogen-activated protein kinase kinase 2 (Homo sapiens) (UniProt P36507); assay: Inhibition of His-tagged full-length recombinant human MAP2K2 expressed in baculovirus system at 100 nM by Z-lyte assay
[17] = molecular target: PI3-kinase p110-delta/p85-alpha (Homo sapiens) (UniProt P27986+O00329); assay: Inhibition of His-tagged full-length human PIK3CD/PIK3R1 expressed in baculovirus system at 100 nM by adapta assay
[18] = molecular target: CDK7/Cyclin H/MNAT1 (Homo sapiens) (UniProt P51946+P50613+P51948); assay: Inhibition of His-tagged full-length human recombinant CDK7/Cyclin H/MNAT1 expressed in baculovirus system at 100 nM by adapta assay
[19] = molecular target: RAC-alpha serine/threonine-protein kinase (Homo sapiens) (UniProt P31749); assay: Inhibition of His-tagged full-length human AKT1 expressed in baculovirus system at 100 nM by Z-lyte assay
[20] = molecular target: Tyrosine-protein kinase JAK1 (Homo sapiens) (UniProt P23458); assay: Inhibition of cytosolic GST-tagged full-length recombinant human JAK1 expressed in baculovirus system at 100 nM by Z-lyte assay
[21] = molecular target: Phosphatidylinositol 4-kinase beta (Homo sapiens) (UniProt Q9UBF8); assay: Inhibition of GST-tagged full-length human PI4K beta expressed in baculovirus system at 100 nM by adapta assay
[22] = molecular target: Calcium/calmodulin-dependent protein kinase type II subunit alpha (Homo sapiens) (UniProt Q9UQM7); assay: Inhibition of His-tagged full-length human CaMKII alpha expressed in baculovirus system at 100 nM by Z-lyte assay
[23] = molecular target: PI3-kinase p110-alpha/p85-alpha (Homo sapiens) (UniProt P27986+P42336); assay: Inhibition of His-tagged full-length human recombinant PIK3CA/PIK3R1 expressed in baculovirus system at 100 nM by adapta assay
[24] = molecular target: Protein kinase C alpha type (Homo sapiens) (UniProt P17252); assay: Inhibition of His-tagged full-length human PRKACA expressed in Escherichia coli system at 100 nM by Z-lyte assay
[25] = molecular target: Mitogen-activated protein kinase 14 (Homo sapiens) (UniProt Q16539); assay: Inhibition of GST-tagged full-length human MAPK14 (direct) expressed in Escherichia coli at 100 nM by Z-lyte assay
Sequence of Mitogen-activated protein kinase 14 (Homo sapiens) (Q16539 whole entry): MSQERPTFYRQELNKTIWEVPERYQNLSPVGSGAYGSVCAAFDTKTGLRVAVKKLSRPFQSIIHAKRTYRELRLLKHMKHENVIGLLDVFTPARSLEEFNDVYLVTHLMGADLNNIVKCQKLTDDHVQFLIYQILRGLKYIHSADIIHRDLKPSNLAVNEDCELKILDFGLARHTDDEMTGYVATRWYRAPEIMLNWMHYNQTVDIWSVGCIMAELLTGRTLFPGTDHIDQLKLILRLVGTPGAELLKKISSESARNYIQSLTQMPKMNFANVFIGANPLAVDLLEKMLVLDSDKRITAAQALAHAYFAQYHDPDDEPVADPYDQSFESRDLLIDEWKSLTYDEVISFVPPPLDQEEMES

Sequence of Inhibitor of nuclear factor kappa-B kinase subunit alpha (Homo sapiens) (O15111 whole entry): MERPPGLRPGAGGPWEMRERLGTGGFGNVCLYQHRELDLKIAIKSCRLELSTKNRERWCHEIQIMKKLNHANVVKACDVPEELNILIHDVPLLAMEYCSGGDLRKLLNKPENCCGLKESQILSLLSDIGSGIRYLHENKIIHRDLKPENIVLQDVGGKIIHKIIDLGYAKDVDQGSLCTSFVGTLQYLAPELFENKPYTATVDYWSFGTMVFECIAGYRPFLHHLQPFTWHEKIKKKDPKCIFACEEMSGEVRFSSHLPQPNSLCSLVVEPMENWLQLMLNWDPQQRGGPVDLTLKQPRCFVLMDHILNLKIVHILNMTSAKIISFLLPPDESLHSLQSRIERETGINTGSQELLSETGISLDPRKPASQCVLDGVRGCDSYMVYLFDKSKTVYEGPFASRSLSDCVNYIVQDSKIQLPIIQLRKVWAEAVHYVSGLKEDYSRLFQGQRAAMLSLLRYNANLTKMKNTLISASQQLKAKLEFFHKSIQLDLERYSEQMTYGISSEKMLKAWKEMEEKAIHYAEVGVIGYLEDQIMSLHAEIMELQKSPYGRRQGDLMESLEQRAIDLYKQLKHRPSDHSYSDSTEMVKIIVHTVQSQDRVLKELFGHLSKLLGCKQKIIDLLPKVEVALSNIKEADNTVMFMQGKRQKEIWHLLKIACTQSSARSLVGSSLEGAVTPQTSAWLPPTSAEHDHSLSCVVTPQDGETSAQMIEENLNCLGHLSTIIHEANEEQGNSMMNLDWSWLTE
Sequence of Glycogen synthase kinase-3 alpha (Homo sapiens) (P49840 2-483 limits assumed): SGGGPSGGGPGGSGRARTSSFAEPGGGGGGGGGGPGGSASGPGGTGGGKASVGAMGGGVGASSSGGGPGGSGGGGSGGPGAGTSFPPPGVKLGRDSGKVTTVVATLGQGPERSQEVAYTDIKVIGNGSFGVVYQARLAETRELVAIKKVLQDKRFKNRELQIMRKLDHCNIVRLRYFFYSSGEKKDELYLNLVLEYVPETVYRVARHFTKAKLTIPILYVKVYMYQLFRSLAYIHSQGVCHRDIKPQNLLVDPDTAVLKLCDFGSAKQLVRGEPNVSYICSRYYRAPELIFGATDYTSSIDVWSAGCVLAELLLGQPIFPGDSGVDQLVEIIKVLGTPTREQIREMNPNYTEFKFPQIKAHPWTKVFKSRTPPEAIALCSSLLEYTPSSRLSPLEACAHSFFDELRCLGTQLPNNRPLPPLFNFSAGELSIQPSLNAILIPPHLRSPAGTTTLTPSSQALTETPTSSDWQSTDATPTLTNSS
Sequence of Cyclin-dependent kinase 5/CDK5 activator 1 (Homo sapiens) (Q00535 whole entry): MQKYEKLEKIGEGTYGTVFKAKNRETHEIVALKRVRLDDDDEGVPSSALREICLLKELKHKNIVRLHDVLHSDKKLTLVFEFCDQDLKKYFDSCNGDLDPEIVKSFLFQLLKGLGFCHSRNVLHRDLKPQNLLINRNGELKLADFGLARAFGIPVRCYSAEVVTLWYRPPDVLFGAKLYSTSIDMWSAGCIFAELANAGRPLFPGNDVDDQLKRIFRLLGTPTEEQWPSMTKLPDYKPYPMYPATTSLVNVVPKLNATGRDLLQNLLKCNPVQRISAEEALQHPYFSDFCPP
Sequence of Cyclin-dependent kinase 5/CDK5 activator 1 (Homo sapiens) (Q15078 99-307 partner limits assumed): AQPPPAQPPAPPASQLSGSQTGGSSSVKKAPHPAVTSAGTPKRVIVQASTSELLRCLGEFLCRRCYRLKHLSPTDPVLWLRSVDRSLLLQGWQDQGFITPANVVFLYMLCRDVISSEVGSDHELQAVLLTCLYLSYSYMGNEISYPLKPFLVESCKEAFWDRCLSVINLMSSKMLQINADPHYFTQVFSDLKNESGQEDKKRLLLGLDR
Sequence of Rho-associated protein kinase 2 (Homo sapiens) (O75116 whole entry, looked up): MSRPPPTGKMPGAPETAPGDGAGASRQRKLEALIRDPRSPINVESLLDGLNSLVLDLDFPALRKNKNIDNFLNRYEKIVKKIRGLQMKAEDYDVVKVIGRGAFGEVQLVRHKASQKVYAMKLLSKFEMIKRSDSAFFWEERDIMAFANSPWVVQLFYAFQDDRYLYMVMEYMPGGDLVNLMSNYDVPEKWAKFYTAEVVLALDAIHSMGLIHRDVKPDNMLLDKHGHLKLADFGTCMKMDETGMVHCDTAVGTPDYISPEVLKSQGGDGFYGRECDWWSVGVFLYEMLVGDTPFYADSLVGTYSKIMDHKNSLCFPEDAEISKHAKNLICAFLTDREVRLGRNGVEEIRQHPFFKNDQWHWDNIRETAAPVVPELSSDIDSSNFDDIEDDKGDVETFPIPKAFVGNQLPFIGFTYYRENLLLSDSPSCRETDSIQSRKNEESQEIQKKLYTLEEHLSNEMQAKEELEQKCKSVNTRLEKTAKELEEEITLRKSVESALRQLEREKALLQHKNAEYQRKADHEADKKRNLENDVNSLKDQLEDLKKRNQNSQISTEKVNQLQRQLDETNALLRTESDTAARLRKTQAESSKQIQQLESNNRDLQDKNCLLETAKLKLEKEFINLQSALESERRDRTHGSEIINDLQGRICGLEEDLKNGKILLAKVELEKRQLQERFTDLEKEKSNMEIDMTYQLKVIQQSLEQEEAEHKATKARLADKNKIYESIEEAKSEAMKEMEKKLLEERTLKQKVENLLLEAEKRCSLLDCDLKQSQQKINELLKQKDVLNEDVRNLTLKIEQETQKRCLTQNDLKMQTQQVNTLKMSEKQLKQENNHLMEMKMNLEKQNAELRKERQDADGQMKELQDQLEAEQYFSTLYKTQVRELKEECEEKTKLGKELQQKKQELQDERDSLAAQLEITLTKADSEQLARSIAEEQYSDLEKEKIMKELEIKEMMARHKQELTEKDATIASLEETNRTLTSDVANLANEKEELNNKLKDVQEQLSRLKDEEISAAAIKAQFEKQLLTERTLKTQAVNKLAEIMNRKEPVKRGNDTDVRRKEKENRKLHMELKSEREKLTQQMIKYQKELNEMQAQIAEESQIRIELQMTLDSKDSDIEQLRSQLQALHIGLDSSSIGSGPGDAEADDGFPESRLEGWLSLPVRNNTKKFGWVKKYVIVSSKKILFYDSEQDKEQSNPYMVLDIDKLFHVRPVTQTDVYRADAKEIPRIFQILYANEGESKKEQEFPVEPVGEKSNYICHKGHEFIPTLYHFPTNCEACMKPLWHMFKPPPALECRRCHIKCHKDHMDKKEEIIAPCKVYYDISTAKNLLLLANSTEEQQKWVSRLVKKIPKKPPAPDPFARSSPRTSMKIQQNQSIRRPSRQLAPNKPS
Sequence of Tyrosine-protein kinase Lck (Homo sapiens) (P06239 2-509 limits assumed): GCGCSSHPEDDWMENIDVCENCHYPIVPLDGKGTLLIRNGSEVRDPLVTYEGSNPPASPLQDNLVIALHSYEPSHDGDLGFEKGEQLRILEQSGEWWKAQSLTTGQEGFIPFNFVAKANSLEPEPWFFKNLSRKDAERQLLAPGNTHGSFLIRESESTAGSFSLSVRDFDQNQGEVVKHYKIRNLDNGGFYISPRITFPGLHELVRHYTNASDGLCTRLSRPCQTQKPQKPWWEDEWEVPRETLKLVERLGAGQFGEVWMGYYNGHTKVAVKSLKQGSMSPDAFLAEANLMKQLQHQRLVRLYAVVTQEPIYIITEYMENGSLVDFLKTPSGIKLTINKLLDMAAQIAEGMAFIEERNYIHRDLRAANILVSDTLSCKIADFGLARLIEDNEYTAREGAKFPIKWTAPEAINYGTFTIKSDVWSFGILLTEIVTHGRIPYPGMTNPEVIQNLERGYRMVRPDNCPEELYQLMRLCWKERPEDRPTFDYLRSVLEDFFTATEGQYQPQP
Sequence of RAC-alpha serine/threonine-protein kinase (Homo sapiens) (P31749 whole entry): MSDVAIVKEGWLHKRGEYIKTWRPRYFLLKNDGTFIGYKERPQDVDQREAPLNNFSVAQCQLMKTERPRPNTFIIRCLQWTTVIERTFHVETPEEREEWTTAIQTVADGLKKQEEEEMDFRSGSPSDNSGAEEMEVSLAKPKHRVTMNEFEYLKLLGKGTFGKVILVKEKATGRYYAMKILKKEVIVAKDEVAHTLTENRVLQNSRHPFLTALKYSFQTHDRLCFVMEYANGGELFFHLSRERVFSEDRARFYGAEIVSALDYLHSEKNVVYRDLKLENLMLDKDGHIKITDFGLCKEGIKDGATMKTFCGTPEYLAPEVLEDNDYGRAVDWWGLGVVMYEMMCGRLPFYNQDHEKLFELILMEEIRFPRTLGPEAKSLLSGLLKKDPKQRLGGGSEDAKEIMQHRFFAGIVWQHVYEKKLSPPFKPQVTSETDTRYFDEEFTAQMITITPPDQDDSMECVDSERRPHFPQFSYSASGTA
Sequence of Serine/threonine-protein kinase Chk1 (Homo sapiens) (O14757 whole entry): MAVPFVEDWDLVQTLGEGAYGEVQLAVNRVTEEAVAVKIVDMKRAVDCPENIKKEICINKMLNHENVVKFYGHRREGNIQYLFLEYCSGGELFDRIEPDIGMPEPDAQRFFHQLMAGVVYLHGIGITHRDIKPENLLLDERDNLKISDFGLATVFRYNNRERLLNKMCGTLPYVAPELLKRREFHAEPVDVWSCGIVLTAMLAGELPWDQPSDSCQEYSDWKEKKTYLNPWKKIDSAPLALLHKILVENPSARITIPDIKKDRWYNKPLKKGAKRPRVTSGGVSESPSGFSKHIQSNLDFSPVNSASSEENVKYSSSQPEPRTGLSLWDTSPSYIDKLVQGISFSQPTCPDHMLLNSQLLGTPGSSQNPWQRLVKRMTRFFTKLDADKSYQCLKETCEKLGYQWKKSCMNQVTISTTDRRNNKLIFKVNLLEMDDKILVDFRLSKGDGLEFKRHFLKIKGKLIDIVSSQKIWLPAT

## O=C(CNC(=O)c1cccn(Cc2ccc(F)c(F)c2)c1=O)Nc1ccc2c(c1)/C(=C/c1cnc[nH]1)C(=O)N2
[1]
  inhibition: -8%
[2]
  inhibition: 10%
[3]
  Imax: 41%
U-87 MG
  Activity: 0.64%
[4]
  inhibition: 3%
[5]
  inhibition: 6%
[6]
  inhibition: 2%
[7]
  inhibition: 43%
[8]
  Activity: 58.6%
[9]
  Activity: 22.7%
[10]
  inhibition: 9%
[11]
  inhibition: -2%
[12]
  inhibition: 17%
[13]
  inhibition: 7%
[14]
  inhibition: -4%
[15]
  inhibition: -4%
[16]
  inhibition: 9%
[17]
  inhibition: 17%
[18]
  inhibition: 1%
[19]
  inhibition: -8%
[20]
  inhibition: -8%
[21]
  inhibition: 4%
[22]
  inhibition: 0%
[23]
  inhibition: 20%
[24]
  inhibition: -5%
[25]
  inhibition: 3%

Reference: ChEMBL document CHEMBL3822377, “Locking PDK1 in DFG-out conformation through 2-oxo-indole containing molecules: Another tools to fight glioblastoma” (Eur J Med Chem, 2016)
